From the supplement of paper PMC10949913

Columns and labels:
Conditions in all cases: 48 h
NCI-H295R [1] = test: AC50 viability; higher = less potent
How it was run: (§1)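 Three adrenocortical carcinoma cell lines in 1,536-well plates received 23 nL of each library compound at 11 concentrations and were read with CellTiter-Glo after 48 h, with 15 minutes at room temperature before measuring luminescence. Vehicle and empty-well controls served for per-plate normalisation. AC50 and area under the curve were extracted from fitted concentration-response curves, discarding all curve classes other than inhibitory or non-responding.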

CU-ACC2 = test: area under concentration-response curve (viability) (AUC (a.u.)); higher = less active
How it was run: as §1

NCI-H295R [2] = test: as above
How it was run: as §1

CU-ACC1 = test: as above
How it was run: as §1

NC(=O)[C@H]1CCS[C@@H]2C[C@]3(CCCN3C(=O)Cc3ccc(NC(=O)COc4ccc(Cl)cc4Cl)cc3)C(=O)N12
AC50 viability (NCI-H295R [1]): 14.8 µM | area under concentration-response curve (CU-ACC2): 528 | area under concentration-response curve (NCI-H295R [2]): 483

CC(/C=C/[C@@H]1C[C@]1(C)c1ccc2c(c1)C(C)(C)CCC2(C)C)=C\C(=O)O
AC50 viability (NCI-H295R [1]): 18.6 µM | area under concentration-response curve (CU-ACC2): 650 | area under concentration-response curve (NCI-H295R [2]): 538 | area under concentration-response curve (CU-ACC1): 525

CN1CCN(CC1)C2=CC3=C([NH]C(=N3)C/4=C(\N)C5=C(F)C=CC=C5NC4=O)C=C2
AC50 viability (NCI-H295R [1]): 20.9 µM | area under concentration-response curve (CU-ACC2): 574 | area under concentration-response curve (NCI-H295R [2]): 479 | area under concentration-response curve (CU-ACC1): 485

CCNC(=O)Nc1ccc(-c2nc3c(c(N4CCOC[C@@H]4C)n2)CCN(C2COC2)C3)cc1
AC50 viability (NCI-H295R [1]): 4.68 µM | area under concentration-response curve (CU-ACC2): 561 | area under concentration-response curve (NCI-H295R [2]): 520

CN1\C(=C(O)/C2=C(C=C(Cl)S2)[S+]1([O-])=O)C(=O)NC3=NC=CC=C3
AC50 viability (NCI-H295R [1]): 0.118 µM | area under concentration-response curve (CU-ACC2): 421 | area under concentration-response curve (NCI-H295R [2]): 380 | area under concentration-response curve (CU-ACC1): 434

C=CCc1cccc(/C=N/NC(=O)CN2CCN(Cc3ccccc3)CC2)c1O
AC50 viability (NCI-H295R [1]): 26.3 µM | area under concentration-response curve (CU-ACC2): 650 | area under concentration-response curve (NCI-H295R [2]): 587 | area under concentration-response curve (CU-ACC1): 523

Cc1cc(C(=O)N2CCN(c3cccc(Cl)c3)CC2)n(-c2ccccc2)n1
AC50 viability (NCI-H295R [1]): 2.95 µM | area under concentration-response curve (CU-ACC2): 648 | area under concentration-response curve (NCI-H295R [2]): 515

COC1=CC=CC2=C1C(=NC(=N2)C3=CC=CS3)NN4C(=O)\C=C(C)/C4=O
AC50 viability (NCI-H295R [1]): 5.9 µM | area under concentration-response curve (CU-ACC2): 489 | area under concentration-response curve (NCI-H295R [2]): 438 | area under concentration-response curve (CU-ACC1): 423

CCn1c(-c2nonc2N)nc2c(C#CC(C)(C)O)ncc(OC[C@H]3CCCNC3)c21
AC50 viability (NCI-H295R [1]): 4.17 µM | area under concentration-response curve (CU-ACC2): 524 | area under concentration-response curve (NCI-H295R [2]): 442 | area under concentration-response curve (CU-ACC1): 369

O=C(Nc1ccncc1)C(=O)c1cn(Cc2ccc(Cl)cc2)c2ccccc12
AC50 viability (NCI-H295R [1]): 0.372 µM | area under concentration-response curve (CU-ACC2): 419 | area under concentration-response curve (NCI-H295R [2]): 418 | area under concentration-response curve (CU-ACC1): 471

O=C1S/C(=C\c2ccc(OCc3cccc(B(O)O)c3)cc2)C(=O)N1Cc1ccc(F)cc1
AC50 viability (NCI-H295R [1]): 13.2 µM | area under concentration-response curve (CU-ACC2): 488 | area under concentration-response curve (NCI-H295R [2]): 463 | area under concentration-response curve (CU-ACC1): 442

O=C1\C=C(OC2=C1SC=C2C3=CC=C4OCCOC4=C3)\N5CCOCC5
AC50 viability (NCI-H295R [1]): 0.0742 µM | area under concentration-response curve (CU-ACC2): 276 | area under concentration-response curve (NCI-H295R [2]): 350 | area under concentration-response curve (CU-ACC1): 293

COc1cc(OC)c(/C=C/[S+](=O)([O-])Cc2ccc(OC)c(OP(=O)(O)O)c2)c(OC)c1
AC50 viability (NCI-H295R [1]): 0.0295 µM | area under concentration-response curve (CU-ACC2): 484 | area under concentration-response curve (NCI-H295R [2]): 407 | area under concentration-response curve (CU-ACC1): 503

CC/C(=C(/CC)c1ccc(O)cc1)c1ccc(O)cc1
AC50 viability (NCI-H295R [1]): 18.6 µM | area under concentration-response curve (CU-ACC2): 585 | area under concentration-response curve (NCI-H295R [2]): 517 | area under concentration-response curve (CU-ACC1): 516

COc1ccc([S+](=O)([O-])Nc2cc(-c3csc(C#N)c3)ccc2C)cc1
AC50 viability (NCI-H295R [1]): 0.0934 µM | area under concentration-response curve (CU-ACC2): 529 | area under concentration-response curve (NCI-H295R [2]): 393 | area under concentration-response curve (CU-ACC1): 489

Cc1nc(NC(=O)N2CCCC2C(N)=O)sc1-c1ccnc(C(C)(C)C(F)(F)F)c1 (stereo unspecified)
AC50 viability (NCI-H295R [1]): 13.2 µM | area under concentration-response curve (CU-ACC2): 626 | area under concentration-response curve (NCI-H295R [2]): 548 | area under concentration-response curve (CU-ACC1): 531

O=C(NC1CC1)c1cccc(-c2ccc3c(NC(=O)C4CC4)n[nH]c3c2)c1
AC50 viability (NCI-H295R [1]): 20.9 µM | area under concentration-response curve (CU-ACC2): 542 | area under concentration-response curve (NCI-H295R [2]): 496 | area under concentration-response curve (CU-ACC1): 495

COC1=CC=C(C=C1)C2=NC3=CC(=CC=C3[NH]2)/C4=N/NC(=O)CC4C (stereo unspecified)
AC50 viability (NCI-H295R [1]): 18.6 µM | area under concentration-response curve (CU-ACC2): 632 | area under concentration-response curve (NCI-H295R [2]): 541 | area under concentration-response curve (CU-ACC1): 532

Cc1ncc(NC(=O)c2cccc(C(F)(F)F)c2)cc1-c1cnc(OC2CCOCC2)c(N2CCOCC2)c1
AC50 viability (NCI-H295R [1]): 20.9 µM | area under concentration-response curve (CU-ACC2): 535 | area under concentration-response curve (NCI-H295R [2]): 560 | area under concentration-response curve (CU-ACC1): 541

C[C@@H]1COCCN1c1cc(C2([S@+](C)(=N)[O-])CC2)nc(-c2ccnc3[nH]ccc23)n1
AC50 viability (NCI-H295R [1]): 16.6 µM | area under concentration-response curve (CU-ACC2): 491 | area under concentration-response curve (NCI-H295R [2]): 525 | area under concentration-response curve (CU-ACC1): 524

Cc1ccc([S+](=O)([O-])Nc2cc(-c3ccc(C#N)s3)ccc2C)cc1
AC50 viability (NCI-H295R [1]): 0.0417 µM | area under concentration-response curve (CU-ACC2): 507 | area under concentration-response curve (NCI-H295R [2]): 373 | area under concentration-response curve (CU-ACC1): 506

COc1cc(NCc2ccc3nc(N)nc(N)c3c2C)cc(OC)c1OC
AC50 viability (NCI-H295R [1]): 20.9 µM | area under concentration-response curve (CU-ACC2): 476 | area under concentration-response curve (NCI-H295R [2]): 446 | area under concentration-response curve (CU-ACC1): 447

COC(=O)c1ccc([C@H]2c3[nH]c4ccccc4c3C[C@H](C(=O)OC)N2C(=O)CCl)cc1
AC50 viability (NCI-H295R [1]): 0.263 µM | area under concentration-response curve (CU-ACC2): 360 | area under concentration-response curve (NCI-H295R [2]): 356 | area under concentration-response curve (CU-ACC1): 385

O=C(Nc1ncc(-c2cc(C(F)F)nn2-c2c(Cl)cccc2Cl)s1)C1CC1
AC50 viability (NCI-H295R [1]): 0.661 µM | area under concentration-response curve (CU-ACC2): 465 | area under concentration-response curve (NCI-H295R [2]): 467 | area under concentration-response curve (CU-ACC1): 501

CC(C)c1onc(-c2c(Cl)cccc2Cl)c1COc1ccc(/C=C/c2cccc(C(=O)O)c2)c(Cl)c1
AC50 viability (NCI-H295R [1]): 13.2 µM | area under concentration-response curve (CU-ACC2): 508 | area under concentration-response curve (NCI-H295R [2]): 480 | area under concentration-response curve (CU-ACC1): 442

CCN1CCN(Cc2ccc(NC(=O)c3ccc(C)c(NC(=O)c4cncc(-c5cccs5)c4)c3)cc2C(F)(F)F)CC1
AC50 viability (NCI-H295R [1]): 7.42 µM | area under concentration-response curve (CU-ACC2): 521 | area under concentration-response curve (NCI-H295R [2]): 432 | area under concentration-response curve (CU-ACC1): 501

C/C=C(/C)C(=O)O[C@H]1C(C)=C2[C@H]([C@@H]1OC(=O)CCCCCCC)[C@@](C)(OC(C)=O)C[C@H](OC(=O)CCC)[C@@]1(O)[C@H]2OC(=O)[C@@]1(C)O
AC50 viability (NCI-H295R [1]): 10.5 µM | area under concentration-response curve (CU-ACC2): 344 | area under concentration-response curve (NCI-H295R [2]): 498 | area under concentration-response curve (CU-ACC1): 465

CCN(CC)CCCCNc1ncc2c(n1)N(C)C(=O)N(c1c(Cl)c(OC)cc(OC)c1Cl)C2
AC50 viability (NCI-H295R [1]): 16.6 µM | area under concentration-response curve (NCI-H295R [2]): 524 | area under concentration-response curve (CU-ACC1): 520

Cc1cncc2cccc([S+](=O)([O-])N3CCCN(C(=O)CN)C[C@@H]3C)c12
AC50 viability (NCI-H295R [1]): 16.6 µM | area under concentration-response curve (NCI-H295R [2]): 433 | area under concentration-response curve (CU-ACC1): 465
